The values that follow come from patent publication US20250215029A1 (Recludix Pharma, Inc., priority 2022, published 2025).

One test has as its target T1, pY641-STAT6 in PBMC (Homo sapiens, UniProt P42226).
T1 construct: Cryopreserved Peripheral Blood Mononuclear Cells (PBMC) are from AllCells; host or cells: cryopreserved PBMC
T1 sequence (P42226 1-847): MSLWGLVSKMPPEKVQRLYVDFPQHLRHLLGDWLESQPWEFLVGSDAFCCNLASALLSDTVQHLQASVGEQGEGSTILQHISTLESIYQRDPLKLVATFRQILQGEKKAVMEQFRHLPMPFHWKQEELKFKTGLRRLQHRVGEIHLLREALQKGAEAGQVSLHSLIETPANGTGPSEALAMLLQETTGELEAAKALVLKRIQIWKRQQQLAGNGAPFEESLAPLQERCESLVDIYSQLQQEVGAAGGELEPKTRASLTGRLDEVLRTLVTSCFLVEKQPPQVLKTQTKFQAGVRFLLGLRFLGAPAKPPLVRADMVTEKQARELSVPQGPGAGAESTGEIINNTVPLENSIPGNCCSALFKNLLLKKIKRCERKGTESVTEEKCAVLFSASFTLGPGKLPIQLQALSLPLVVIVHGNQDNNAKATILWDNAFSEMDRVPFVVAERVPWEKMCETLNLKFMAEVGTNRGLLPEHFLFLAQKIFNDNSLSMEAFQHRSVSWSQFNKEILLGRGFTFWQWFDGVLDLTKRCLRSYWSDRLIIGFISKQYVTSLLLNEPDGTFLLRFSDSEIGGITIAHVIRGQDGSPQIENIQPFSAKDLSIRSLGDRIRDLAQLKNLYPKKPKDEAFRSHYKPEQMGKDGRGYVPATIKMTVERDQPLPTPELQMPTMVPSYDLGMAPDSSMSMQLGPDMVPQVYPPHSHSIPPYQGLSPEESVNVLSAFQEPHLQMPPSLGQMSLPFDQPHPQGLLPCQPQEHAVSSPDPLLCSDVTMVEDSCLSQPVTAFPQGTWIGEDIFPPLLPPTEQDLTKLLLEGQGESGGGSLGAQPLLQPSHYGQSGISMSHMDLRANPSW
Description: MSD-pSTAT-PBMC Assay (pSTAT6, IL-4 stimulated). The format is cell-based. Particulars: PBMC, compound 3 hrs, then 1 ng/mL IL-4 for 10 min; Table 115; read-out: STAT6. The gist of the method: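 Cells are preincubated with compound for 3 hrs, then stimulated for 10 min, IL-4 at 1 ng/mL driving STAT6 phosphorylation and IL-6 at 10 ng/mL driving STAT3. Phospho-STAT in lysates is quantified by MSD immunoassay, and IC50 is fitted after subtracting unstimulated wells.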
With `CCCOC(=O)[C@H](C)NP(=O)(Oc1ccccc1)[C@@H](F)c1ccc2sc(C(=O)N[C@H]3CCCC[C@H]4CC[C@@H](C(=O)N5C[C@H](c6cccnc6)[C@@H](C#N)C56CC6)N4C3=O)cc2c1` (stereo partly drawn) [Compound 364], the IC50 was less than 100 nM.
Regarding `CCCOC(=O)[C@H](C)NP(=O)(Oc1ccccc1)[C@@H](F)c1ccc2sc(C(=O)N[C@H]3CCCC[C@H]4CC[C@@H](C(=O)N5C[C@H](c6cccnc6)[C@@H](C#N)C56CC6)N4C3=O)cc2c1` (stereo partly drawn) [Compound 365], the IC50 was less than 100 nM.

Still in this test, the particulars now being: STAT6, PBMC, compound 3 hrs, then 1 ng/mL IL-4 for 10 min; Table 115.
`CCCOC(=O)[C@H](C)NP(=O)(Oc1ccccc1)[C@H](F)c1ccc2sc(C(=O)N[C@H]3C[C@H](C)C[C@H]4CC[C@@H](C(=O)N5C[C@H](c6ccccc6)[C@@H](C#N)C56CC6)N4C3=O)cc2c1` (stereo partly drawn) [Compound 352, propyl (((S)-(2-(((3S,6S,8S,9aR)-3-((6S,7R)-7-cyano-6-phenyl-4-azaspiro[2.4]heptane-4-carbonyl)-8-methyl-5-oxooctahydro-1H-pyrrolo[1,2-a]azepin-6-yl)carbamoyl)benzo [b]thiophen-5-yl)fluoromethyl) (phenoxy)phosphoryl)-L-alaninate] registered an IC50 of less than 100 nM.
Same read-out and setting: under `CCCOC(=O)[C@H](C)NP(=O)(Oc1ccccc1)[C@@H](F)c1ccc2sc(C(=O)N[C@H]3C[C@@H](C)C[C@H]4CC[C@@H](C(=O)N5C[C@@H](c6cccnc6)CC56CC6)N4C3=O)cc2c1` (stereo partly drawn) [Compound 353, propyl (((R)-fluoro(2-(((3S,6S,8R,9aR)-8-methyl-5-oxo-3-((R)-6-(pyridin-3-yl)-4-azaspiro[2.4]heptane-4-carbonyl)octahydro-1H-pyrrolo[1,2-a]azepin-6-yl)carbamoyl)benzo [b]thiophen-5-yl)methyl)(phenoxy)phosphoryl)-L-alaninate] stands less than 100 nM; under `C[C@H](NP(=O)(Oc1ccccc1)[C@@H](F)c1ccc2sc(C(=O)N[C@H]3CCC[C@H]4CC[C@@H](C(=O)N5C[C@@H](c6cccnc6)CC56CC6)N4C3=O)cc2c1)C(=O)OCc1nnnn1C` (stereo partly drawn) [Compound 356, (1-methyl-1H-tetrazol-5-yl)methyl (((R)-fluoro(2-(((3S,6S,9aS)-5-oxo-3-((R)-6-(pyridin-3-yl)-4-azaspiro[2.4]heptane-4-carbonyl)octahydro-1H-pyrrolo[1,2-a]azepin-6-yl)carbamoyl)benzo [b]thiophen-5-yl)methyl)(phenoxy)phosphoryl)-L-alaninate], 100 to 1000 nM.
On the same count and under the same terms, in the case of `CCCOC(=O)[C@H](C)NP(=O)(Oc1cccc(OCCOC)c1)[C@@H](F)c1ccc2sc(C(=O)N[C@H]3CCC[C@H]4CC[C@@H](C(=O)N5C[C@@H](c6cccnc6)CC56CC6)N4C3=O)cc2c1` (stereo partly drawn) [Compound 357, propyl (((R)-fluoro(2-(((3S,6S,9aS)-5-oxo-3-((R)-6-(pyridin-3-yl)-4-azaspiro[2.4]heptane-4-carbonyl)octahydro-1H-pyrrolo[1,2-a]azepin-6-yl)carbamoyl)benzo [b]thiophen-5-yl)methyl)(3-(2-methoxyethoxy)phenoxy)phosphoryl)-L-alaninate] it was less than 100 nM.
On to `COC(C)(C)COC(=O)[C@H](C)NP(=O)(Oc1ccccc1)[C@@H](F)c1ccc2sc(C(=O)N[C@H]3CCCC[C@H]4CC[C@@H](C(=O)N5C[C@@H](c6cccnc6)CC56CC6)N4C3=O)cc2c1` (stereo partly drawn) [Compound 358, 2-methoxy-2-methylpropyl (((R)-fluoro(2-(((3S,6S,10aS)-5-oxo-3-((R)-6-(pyridin-3-yl)-4-azaspiro[2.4]heptane-4-carbonyl)decahydropyrrolo[1,2-a]azocin-6-yl)carbamoyl)benzo [b]thiophen-5-yl)methyl)(phenoxy)phosphoryl)-L-alaninate], for which the IC50 was less than 100 nM.
The compound `CCCOC(=O)[C@H](C)NP(=O)(Oc1c(C)cccc1C)[C@H](F)c1ccc2sc(C(=O)N[C@H]3CCC[C@H]4CC[C@@H](C(=O)N5C[C@@H](c6cccnc6)CC56CC6)N4C3=O)cc2c1` (stereo partly drawn) [Compound 359, propyl ((2,6-dimethylphenoxy) ((S)-fluoro(2-(((3S,6S,9aS)-5-oxo-3-((R)-6-(pyridin-3-yl)-4-azaspiro[2.4]heptane-4-carbonyl)octahydro-1H-pyrrolo[1,2-a]azepin-6-yl)carbamoyl)benzo [b]thiophen-5-yl)methyl)phosphoryl)-L-alaninate] yielded an IC50 of less than 100 nM.
The same measure, in the same setting: in the case of `C[C@H](NP(=O)(Oc1ccccc1)[C@@H](F)c1ccc2sc(C(=O)N[C@H]3CCCC[C@H]4CC[C@@H](C(=O)N5C[C@@H](c6cccnc6)CC56CC6)N4C3=O)cc2c1)C(=O)OCC1CCOCC1` (stereo partly drawn) [Compound 360, (tetrahydro-2H-pyran-4-yl)methyl (((R)-fluoro(2-(((3S,6S,10aS)-5-oxo-3-((R)-6-(pyridin-3-yl)-4-azaspiro[2.4]heptane-4-carbonyl)decahydropyrrolo[1,2-a]azocin-6-yl)carbamoyl)benzo [b]thiophen-5-yl)methyl)(phenoxy)phosphoryl)-L-alaninate] it was less than 100 nM.
The same measure, in the same setting: under `COCCOC(=O)[C@H](C)NP(=O)(Oc1ccccc1)[C@@H](F)c1ccc2sc(C(=O)N[C@H]3CCC[C@H]4CC[C@@H](C(=O)N5C[C@@H](c6ccccc6)[C@H](C#N)C56CC6)N4C3=O)cc2c1` (stereo partly drawn) [Compound 361, 2-methoxyethyl (((R)-(2-(((3S,6S,9aS)-3-((6R,7S)-7-cyano-6-phenyl-4-azaspiro[2.4]heptane-4-carbonyl)-5-oxooctahydro-1H-pyrrolo[1,2-a]azepin-6-yl)carbamoyl)benzo [b]thiophen-5-yl)fluoromethyl) (phenoxy)phosphoryl)-L-alaninate] stands less than 100 nM; under `C[C@H](NP(=O)(Oc1ccccc1)[C@@H](F)c1ccc2sc(C(=O)N[C@H]3CCC[C@H]4CC[C@@H](C(=O)N5C[C@@H](c6cccnc6)CC56CC6)N4C3=O)cc2c1)C(=O)OCc1cccnn1` (stereo partly drawn) [Compound 366, pyridazin-3-ylmethyl (((R)-fluoro(2-(((3S,6S,9aS)-5-oxo-3-((R)-6-(pyridin-3-yl)-4-azaspiro[2.4]heptane-4-carbonyl)octahydro-1H-pyrrolo[1,2-a]azepin-6-yl)carbamoyl)benzo [b]thiophen-5-yl)methyl)(phenoxy)phosphoryl)-L-alaninate], 100 to 1000 nM; under `C[C@H](NP(=O)(Oc1ccccc1)[C@@H](F)c1ccc2sc(C(=O)N[C@H]3CCCC[C@H]4CC[C@@H](C(=O)N5C[C@@H](c6cccnc6)CC56CC6)N4C3=O)cc2c1)C(=O)OCC1COC1` (stereo partly drawn) [Compound 374, oxetan-3-ylmethyl (((R)-fluoro(2-(((3S,6S,10aS)-5-oxo-3-((R)-6-(pyridin-3-yl)-4-azaspiro[2.4]heptane-4-carbonyl)decahydropyrrolo[1,2-a]azocin-6-yl)carbamoyl)benzo [b]thiophen-5-yl)methyl)(phenoxy)phosphoryl)-L-alaninate], less than 100 nM.
The same measure, in the same setting: in the case of `COCCOC(=O)[C@H](C)NP(=O)(Oc1ccccc1)[C@@H](F)c1ccc2sc(C(=O)N[C@H]3CCCC[C@H]4CC[C@@H](C(=O)N5C[C@H](c6ccccc6)[C@@H](C#N)C56CC6)N4C3=O)cc2c1` (stereo partly drawn) [Compound 375, 2-methoxyethyl (((R)-(2-(((3S,6S,10aS)-3-((6S,7R)-7-cyano-6-phenyl-4-azaspiro[2.4]heptane-4-carbonyl)-5-oxodecahydropyrrolo [1,2-a]azocin-6-yl)carbamoyl)benzo [b]thiophen-5-yl)fluoromethyl) (phenoxy)phosphoryl)-L-alaninate] it was less than 100 nM; in that of `COCCOC(=O)[C@H](COC)NP(=O)(Oc1ccccc1)[C@@H](F)c1ccc2sc(C(=O)N[C@H]3CCCC[C@H]4CC[C@@H](C(=O)N5C[C@H](c6ccccc6)[C@@H](C#N)C56CC6)N4C3=O)cc2c1` (stereo partly drawn) [Compound 376, 2-methoxyethyl N-(((R)-(2-(((3S,6S,10aS)-3-((6S,7R)-7-cyano-6-phenyl-4-azaspiro[2.4]heptane-4-carbonyl)-5-oxodecahydropyrrolo [1,2-a]azocin-6-yl)carbamoyl)benzo [b]thiophen-5-yl)fluoromethyl) (phenoxy)phosphoryl)-O-methyl-L-serinate], less than 100 nM; in that of `COCCOC(=O)[C@H](C)NP(=O)(Oc1ccccc1)[C@@H](F)c1ccc2sc(C(=O)N[C@H]3CCCC[C@H]4CC[C@@H](C(=O)N5C[C@@H](c6cccnc6)CC56CC6)N4C3=O)cc2c1` (stereo partly drawn) [Compound 378, 2-methoxyethyl (((R)-fluoro(2-(((3S,6S,10aS)-5-oxo-3-((R)-6-(pyridin-3-yl)-4-azaspiro[2.4]heptane-4-carbonyl)decahydropyrrolo[1,2-a]azocin-6-yl)carbamoyl)benzo [b]thiophen-5-yl)methyl)(phenoxy)phosphoryl)-L-alaninate], less than 100 nM.
